From ChEMBL document CHEMBL5104173, “Combining monoamine oxidase B and semicarbazide-sensitive amine oxidase enzyme inhibition to address inflammatory disease” (Bioorg Med Chem Lett, 2022)
pIC50: −log10 of the molar value. One block for each compound: values may come before it. The source made the active and inactive calls. The calls are words filed in the database; no cut-off is given here.

Experiments:
[1] = target: T1, Amine oxidase [flavin-containing] B (Homo sapiens, UniProt P27338); test: Inhibition of human recombinant MAO-B
T1 sequence (P27338 whole entry): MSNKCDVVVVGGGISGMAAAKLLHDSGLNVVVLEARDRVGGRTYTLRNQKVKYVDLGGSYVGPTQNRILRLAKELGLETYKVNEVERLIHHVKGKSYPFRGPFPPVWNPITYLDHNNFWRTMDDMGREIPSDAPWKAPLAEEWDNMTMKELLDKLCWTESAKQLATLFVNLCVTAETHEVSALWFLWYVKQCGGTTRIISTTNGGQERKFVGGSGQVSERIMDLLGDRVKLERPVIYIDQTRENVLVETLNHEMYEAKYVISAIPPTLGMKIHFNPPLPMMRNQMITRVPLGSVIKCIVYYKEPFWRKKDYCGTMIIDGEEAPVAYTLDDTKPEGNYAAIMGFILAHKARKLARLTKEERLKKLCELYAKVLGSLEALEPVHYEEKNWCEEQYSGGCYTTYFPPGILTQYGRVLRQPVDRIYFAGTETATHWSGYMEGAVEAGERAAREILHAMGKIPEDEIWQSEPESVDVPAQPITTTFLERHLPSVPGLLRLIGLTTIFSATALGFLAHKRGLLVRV

[2] = target: recombinant human DAO (diamine oxidase) (Homo sapiens, UniProt P19801); test: Inhibition of human recombinant DAO
[3] = target: T2, Amine oxidase [flavin-containing] A (Homo sapiens, UniProt P21397); test: Inhibition of human recombinant MAO-A
T2 sequence (P21397 whole entry): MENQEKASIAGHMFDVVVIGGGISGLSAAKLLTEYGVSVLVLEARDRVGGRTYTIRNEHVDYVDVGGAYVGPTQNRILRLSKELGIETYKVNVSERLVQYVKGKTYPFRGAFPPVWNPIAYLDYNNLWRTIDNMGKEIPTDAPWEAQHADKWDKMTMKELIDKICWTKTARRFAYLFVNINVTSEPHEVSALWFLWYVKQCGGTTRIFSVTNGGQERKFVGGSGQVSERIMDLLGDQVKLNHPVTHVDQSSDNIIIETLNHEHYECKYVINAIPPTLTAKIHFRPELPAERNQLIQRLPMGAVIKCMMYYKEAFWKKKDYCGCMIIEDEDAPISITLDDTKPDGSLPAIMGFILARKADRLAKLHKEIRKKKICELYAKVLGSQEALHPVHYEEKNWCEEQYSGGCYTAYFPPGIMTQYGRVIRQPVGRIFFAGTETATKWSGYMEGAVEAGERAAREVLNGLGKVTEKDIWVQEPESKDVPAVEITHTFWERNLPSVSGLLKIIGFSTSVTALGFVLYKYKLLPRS

Cytochrome P450 2C19 = Cytochrome P450 2C19 (Homo sapiens, UniProt P33261); test: Inhibition of CYP2C19 (unknown origin)
Cytochrome P450 1A2 = target: T3, Cytochrome P450 1A2 (Homo sapiens, UniProt P05177); test: Inhibition of CYP1A2 (unknown origin); assay type: ADME
T3 sequence (P05177 whole entry): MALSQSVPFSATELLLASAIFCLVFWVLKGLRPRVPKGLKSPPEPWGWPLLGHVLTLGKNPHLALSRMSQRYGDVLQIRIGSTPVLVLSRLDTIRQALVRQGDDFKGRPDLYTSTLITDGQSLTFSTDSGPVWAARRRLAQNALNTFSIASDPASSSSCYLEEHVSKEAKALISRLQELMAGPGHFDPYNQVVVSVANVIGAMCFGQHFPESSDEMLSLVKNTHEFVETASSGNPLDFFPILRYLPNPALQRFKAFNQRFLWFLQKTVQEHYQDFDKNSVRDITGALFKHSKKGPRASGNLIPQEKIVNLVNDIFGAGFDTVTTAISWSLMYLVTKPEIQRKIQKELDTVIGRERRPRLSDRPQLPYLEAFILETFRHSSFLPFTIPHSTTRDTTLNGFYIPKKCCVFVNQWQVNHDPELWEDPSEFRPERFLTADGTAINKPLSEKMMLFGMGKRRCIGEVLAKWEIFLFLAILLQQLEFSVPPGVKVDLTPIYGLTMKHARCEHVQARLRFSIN

Protein-lysine 6-oxidase = target: T4, Protein-lysine 6-oxidase (Bos taurus, UniProt P33072); test: Inhibition of bovine aorta LOX; assay type: tissue-based
T4 sequence (P33072 whole entry): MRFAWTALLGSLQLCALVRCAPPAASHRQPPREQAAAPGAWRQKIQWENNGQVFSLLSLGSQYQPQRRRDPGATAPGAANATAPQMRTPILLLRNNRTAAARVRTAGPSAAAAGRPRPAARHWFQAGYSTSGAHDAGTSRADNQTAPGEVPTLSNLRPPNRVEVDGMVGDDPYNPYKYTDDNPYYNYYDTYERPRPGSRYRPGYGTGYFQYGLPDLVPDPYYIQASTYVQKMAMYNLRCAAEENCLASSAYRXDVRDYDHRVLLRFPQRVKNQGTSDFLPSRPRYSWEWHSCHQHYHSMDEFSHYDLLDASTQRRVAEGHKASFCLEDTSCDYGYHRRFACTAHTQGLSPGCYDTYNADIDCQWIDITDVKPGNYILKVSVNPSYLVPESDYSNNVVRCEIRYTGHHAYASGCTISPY

Cytochrome P450 2D6 = Cytochrome P450 2D6 (Homo sapiens, UniProt P10635); test: Inhibition of CYP2D6 (unknown origin); assay type: ADME
Rattus norvegicus [4] = test: In vivo inhibition of MOA-A in Wistar rat brain at 3 mg/kg, po administered as single dose and measured upto 48 hrs; assay type: functional, organism-based
Rattus norvegicus [5] = test: In vivo inhibition of MOA-B in Wistar rat brain at 0.6 mg/kg, po administered as single dose and measured upto 48 hrs; assay type: functional, organism-based
Mus musculus [6] = test: Antiinflammatory activity against mouse air pouch model of carrageenan-induced oedema assessed as reduction in neutrophil number in infiltrate at 0.6 mg/kg, po administered as single dose for 1 hr followed byb carrageenan administration; assay type: functional, organism-based
[7] = Plasma protein binding in rat; assay type: ADME, cell-free; conditions: read-out: PPB (converted)
Lysyl oxidase homolog 2 = target: T5, Lysyl oxidase homolog 2 (Homo sapiens, UniProt Q9Y4K0); test: Inhibition of recombinant human LOXL-2
T5 sequence (Q9Y4K0 whole entry): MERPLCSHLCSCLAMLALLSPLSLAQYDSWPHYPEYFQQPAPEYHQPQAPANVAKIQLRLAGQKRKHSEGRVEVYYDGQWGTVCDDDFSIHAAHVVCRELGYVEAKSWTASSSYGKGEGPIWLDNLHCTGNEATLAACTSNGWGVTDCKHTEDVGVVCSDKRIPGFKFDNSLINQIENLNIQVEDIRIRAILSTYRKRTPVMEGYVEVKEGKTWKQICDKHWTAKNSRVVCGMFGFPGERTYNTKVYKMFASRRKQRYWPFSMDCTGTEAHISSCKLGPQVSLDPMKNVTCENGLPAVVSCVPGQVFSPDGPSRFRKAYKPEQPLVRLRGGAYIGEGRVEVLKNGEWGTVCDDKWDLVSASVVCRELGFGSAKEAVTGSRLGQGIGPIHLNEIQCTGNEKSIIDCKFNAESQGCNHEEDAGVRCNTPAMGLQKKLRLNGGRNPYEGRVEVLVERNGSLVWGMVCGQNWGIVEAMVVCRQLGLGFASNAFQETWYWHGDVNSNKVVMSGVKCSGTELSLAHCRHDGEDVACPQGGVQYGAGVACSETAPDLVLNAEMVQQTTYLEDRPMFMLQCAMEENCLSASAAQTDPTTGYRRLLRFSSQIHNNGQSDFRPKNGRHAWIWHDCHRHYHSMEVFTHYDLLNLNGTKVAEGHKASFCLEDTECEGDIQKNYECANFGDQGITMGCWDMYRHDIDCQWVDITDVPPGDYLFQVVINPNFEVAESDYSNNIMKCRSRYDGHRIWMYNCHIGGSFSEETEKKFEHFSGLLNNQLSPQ

[8] = Stability in human hepatocytes assessed as parent compound remaining measured after 1 hr; assay type: ADME, cell-based, Hepatocyte; conditions: read-out: Stability
[9] = Tmax in Wistar rat at 3 mg/kg, po; assay type: ADME, organism-based; conditions: in vivo
[10] = Plasma protein binding in human; assay type: ADME, cell-free; conditions: read-out: PPB (converted)
[11] = target: Lysine-specific histone demethylase 1A (Homo sapiens, UniProt O60341); test: Inhibition of LSD1 (unknown origin)
Mus musculus [12] = test: Antineuroinflammatory activity in PLP-induced autoimmune encephalomyelitis mouse model assessed as reduction in AUC of clinical score at 0.6 to 6 mg/kg/day, po administered once daily via oral gavage starting from day 13 post PLP sensibilization and measured on day 30; assay type: functional, organism-based; conditions: dose 0.6-6 mg/kg/day, time 17.0 day
[13] = Stability in human microsomes measured after 1 hr; assay type: ADME, Microsome; conditions: read-out: Stability
[14] = AUC (0 to infinity) in Wistar rat at 3 mg/kg, po; assay type: ADME, organism-based; parameters: time infinity, dose 3 mg/kg, route po; conditions: in vivo
Cytochrome P450 2C9 = Cytochrome P450 2C9 (Homo sapiens, UniProt P11712); test: Inhibition of CYP2C9 (unknown origin); assay type: ADME
Mus musculus [15] = test: Antiinflammatory activity against mouse air pouch model of carrageenan-induced oedema assessed as reduction in total inflammatory cell volume into air pouch at 0.6 to 6 mg/kg, po administered as single dose for 1 hr followed byb carrageenan administration; assay type: functional, organism-based; conditions: dose 0.6-6 mg/kg
[16] = Plasma protein binding in dog; assay type: ADME, cell-free, Canis lupus familiaris; conditions: read-out: PPB (converted)
[17] = Cmax in Wistar rat at 3 mg/kg, po; assay type: ADME, organism-based; parameters: dose 3 mg/kg, route po; conditions: in vivo
[18] = Stability in rat microsomes measured after 1 hr; assay type: ADME, Microsome; conditions: read-out: Stability
Rattus norvegicus [19] = test: In vivo inhibition of SSAO in Wistar rat adipose tissue at 0.6 mg/kg, po administered as single dose and measured upto 48 hrs; assay type: functional, organism-based
Cytochrome P450 3A4 = Cytochrome P450 3A4 (Homo sapiens, UniProt P08684); test: Inhibition of CYP3A4 (unknown origin); assay type: ADME
[20] = Stability in dog microsomes measured after 1 hr; assay type: ADME, Canis lupus familiaris, Microsome; conditions: read-out: Stability
[21] = target: T6, Amine oxidase [flavin-containing] B (Mus musculus, UniProt Q8BW75); test: Inhibition of mouse muscle MAO-B; assay type: tissue-based, Muscle tissue
T6 sequence (Q8BW75 whole entry): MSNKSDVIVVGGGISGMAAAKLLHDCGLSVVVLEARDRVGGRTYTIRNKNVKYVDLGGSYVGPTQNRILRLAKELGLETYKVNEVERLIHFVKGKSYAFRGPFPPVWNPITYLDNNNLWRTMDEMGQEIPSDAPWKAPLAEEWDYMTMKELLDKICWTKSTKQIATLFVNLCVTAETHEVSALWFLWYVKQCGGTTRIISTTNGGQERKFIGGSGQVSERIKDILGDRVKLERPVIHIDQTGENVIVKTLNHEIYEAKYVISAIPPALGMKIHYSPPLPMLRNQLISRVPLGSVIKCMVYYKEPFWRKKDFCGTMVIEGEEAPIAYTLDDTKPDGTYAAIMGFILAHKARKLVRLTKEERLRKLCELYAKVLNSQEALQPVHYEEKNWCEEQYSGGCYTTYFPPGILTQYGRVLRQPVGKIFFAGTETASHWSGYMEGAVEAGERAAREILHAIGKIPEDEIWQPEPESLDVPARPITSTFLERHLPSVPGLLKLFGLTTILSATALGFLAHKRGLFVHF

[22] = Permeability in MDCK-MDR1 cells; assay type: ADME, cell-based, Canis lupus familiaris; conditions: dog

Chain of Cytochrome P450 2C19 (P33261 whole entry): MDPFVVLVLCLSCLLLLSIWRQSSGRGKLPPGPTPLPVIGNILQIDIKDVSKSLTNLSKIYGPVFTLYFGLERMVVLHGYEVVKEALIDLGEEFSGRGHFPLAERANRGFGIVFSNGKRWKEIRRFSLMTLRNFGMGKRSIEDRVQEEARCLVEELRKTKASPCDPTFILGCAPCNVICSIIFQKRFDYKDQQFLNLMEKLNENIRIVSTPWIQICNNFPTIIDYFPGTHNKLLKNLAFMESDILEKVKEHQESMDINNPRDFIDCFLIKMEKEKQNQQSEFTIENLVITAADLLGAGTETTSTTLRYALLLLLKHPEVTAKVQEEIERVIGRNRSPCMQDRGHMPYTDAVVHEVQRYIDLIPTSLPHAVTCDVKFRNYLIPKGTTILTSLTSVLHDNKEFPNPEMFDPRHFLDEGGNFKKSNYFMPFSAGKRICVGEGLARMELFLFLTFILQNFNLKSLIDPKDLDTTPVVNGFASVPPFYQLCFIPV
Chain of Cytochrome P450 2D6 (P10635 whole entry): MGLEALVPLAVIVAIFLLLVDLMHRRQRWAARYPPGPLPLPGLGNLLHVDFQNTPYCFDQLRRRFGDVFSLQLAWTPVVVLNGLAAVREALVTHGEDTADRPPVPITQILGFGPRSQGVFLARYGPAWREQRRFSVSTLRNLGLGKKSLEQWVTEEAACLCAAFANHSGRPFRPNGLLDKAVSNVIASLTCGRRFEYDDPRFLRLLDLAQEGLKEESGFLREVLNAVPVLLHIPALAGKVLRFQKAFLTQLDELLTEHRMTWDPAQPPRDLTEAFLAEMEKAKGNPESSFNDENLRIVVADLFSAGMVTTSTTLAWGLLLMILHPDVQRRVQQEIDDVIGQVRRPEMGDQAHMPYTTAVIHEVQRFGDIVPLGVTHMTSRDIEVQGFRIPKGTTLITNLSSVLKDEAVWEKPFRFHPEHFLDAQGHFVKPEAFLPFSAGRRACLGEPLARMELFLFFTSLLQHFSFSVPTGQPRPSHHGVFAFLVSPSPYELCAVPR
Chain of Cytochrome P450 2C9 (P11712 whole entry): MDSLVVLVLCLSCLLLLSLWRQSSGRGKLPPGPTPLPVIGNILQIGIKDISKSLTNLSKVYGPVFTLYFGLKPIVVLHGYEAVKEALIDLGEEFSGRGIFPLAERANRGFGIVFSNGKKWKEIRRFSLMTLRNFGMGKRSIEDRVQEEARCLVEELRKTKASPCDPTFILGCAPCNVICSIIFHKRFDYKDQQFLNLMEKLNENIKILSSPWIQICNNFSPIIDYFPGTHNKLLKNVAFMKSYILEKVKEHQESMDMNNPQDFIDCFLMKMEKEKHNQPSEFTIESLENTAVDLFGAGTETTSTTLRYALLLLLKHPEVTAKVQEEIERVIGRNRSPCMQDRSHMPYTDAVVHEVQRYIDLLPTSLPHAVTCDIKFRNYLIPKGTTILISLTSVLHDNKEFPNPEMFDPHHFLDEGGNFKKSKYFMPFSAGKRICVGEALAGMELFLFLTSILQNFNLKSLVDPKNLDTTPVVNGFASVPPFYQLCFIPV
Chain of Cytochrome P450 3A4 (P08684 whole entry): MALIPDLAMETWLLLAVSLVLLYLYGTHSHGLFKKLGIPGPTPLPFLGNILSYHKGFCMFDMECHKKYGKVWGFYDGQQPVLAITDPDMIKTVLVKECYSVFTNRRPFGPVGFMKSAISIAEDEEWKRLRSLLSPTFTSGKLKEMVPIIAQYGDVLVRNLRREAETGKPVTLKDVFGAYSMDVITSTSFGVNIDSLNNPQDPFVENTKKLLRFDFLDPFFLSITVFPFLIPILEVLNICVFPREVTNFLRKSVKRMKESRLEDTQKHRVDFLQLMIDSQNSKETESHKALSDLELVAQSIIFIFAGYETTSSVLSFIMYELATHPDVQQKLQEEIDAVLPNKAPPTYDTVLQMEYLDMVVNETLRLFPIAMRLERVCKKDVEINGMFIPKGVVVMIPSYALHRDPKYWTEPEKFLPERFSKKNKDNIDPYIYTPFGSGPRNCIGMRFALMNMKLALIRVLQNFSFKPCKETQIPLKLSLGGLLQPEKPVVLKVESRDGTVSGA

Structure (SMILES): Cc1ccccc1OC/C(=C/F)CN
pIC50 [1]: 8.52 | pIC50 [2]: < 4.52 | pIC50 [3]: 6.80

Structure (SMILES): Cl.NC/C(=C\F)[C@H]1Cc2ccccc2O1
pIC50 (Cytochrome P450 2C19): < 5.00 | pIC50 (Cytochrome P450 1A2): < 5.00 | pIC50 (Protein-lysine 6-oxidase): < 4.52 | pIC50 (Cytochrome P450 2D6): < 5.00 | inhibition (Rattus norvegicus [4]): Active | inhibition (Rattus norvegicus [5]): Active | Activity (Mus musculus [6]): Active | fraction unbound [7]: 0.51 | pIC50 (Lysyl oxidase homolog 2): < 4.52 | remaining at 1 h [8]: > 95% | Tmax [9]: 20 min | fraction unbound [10]: 0.24 | pIC50 [11]: < 4.52 | Activity (Mus musculus [12]): Active | remaining at 1 h [13]: 84% | AUC(0-inf) [14]: 265 ng·h/mL | pIC50 (Cytochrome P450 2C9): < 5.00 | Activity (Mus musculus [15]): Active | fraction unbound [16]: 0.42 | Cmax [17]: 199 ng/mL | pIC50 [2]: < 4.52 | remaining at 1 h [18]: 67% | pIC50 [3]: 5.62 | inhibition (Rattus norvegicus [19]): Active | pIC50 (Cytochrome P450 3A4): < 5.00 | remaining at 1 h [20]: 92% | pIC50 [21]: 9.40

Structure (SMILES): NC/C(=C/F)[C@@H]1Cc2ccccc2O1
pIC50 [3]: 7.00

The remaining lines, values ahead:

pIC50 [1]: 8.40 | pIC50 [2]: 6.11 | pIC50 [3]: 4.85
Structure (SMILES): NCC(=CF)COc1ccc(F)cc1 (mixture of isomers)

permeability [22]: Permeable | pIC50 [2]: < 4.52 | pIC50 [3]: 6.12
Structure (SMILES): Cl.NC/C(=C\F)[C@@H]1Cc2ccccc2O1
